Results taken from patent US20230225973A1, “MULTI-LAYERED MEDICAMENT FOR INHALATION” (Mylan Pharma UK Limited, priority 2020, published 2023).

Legend:
[1] = Aerosolization performance: TIR and FPM from a next generation impactor (NGI), equivalence of MGR001/MGR002 with MGR003; type: physicochemical; conditions: for FPM, Pass/fail (0.90-1.11) / TIR, Pass/fail (0.90-1.11): 90% CI of ratio of geometric means within 0.90-1.11
Excerpt: The same batches for MGR002 and MGR003 were utilized in obtaining emitted data used to obtain aerosolization performance information. Table 5 below presents the results and equivalence criteria, respectively for 5-[3-(3-Hydroxyphenoxy)azetidin-1-yl]-5-methyl-2,2-diphenylhexanamide hydrochloride of formula II, fluticasone propionate and salmeterol.
The […] (FPM) and mean total impactor recovery (TIR) from a next generation impactor (NGI) for each batch were equivalent, based on the fact that the upper/lower 90% confidence interval of the ratio of the geometric mean, rested between 0.90 and 1.11. […] The fluticasone propionate and salmeterol xinafoate components of the MGR003 drug product also met the same performance targets as the MGR001 250/50 drug product.

[2] = Comparison of fine particle dose (FPD) performance of blended combination, layer filled combination and baseline products; type: physicochemical; conditions: FIG. 6; product T3 (low shear triple blend)
Experimental: The two options were to either: 1) layer fill blends of the individual products or; 2) low shear mix blends of the individual products. The individual products were either 0.58% w/w salmeterol xinafoate/4% w/w fluticasone propionate combination blend or 4.8% w/w 5-[3-(3-Hydroxyphenoxy)azetidin-1-yl]-5-methyl-2,2-diphenylhexanamide hydrochloride blend.
Four products (L1, L2, L3, and T3) were prepared as outline below. Products L1 and L2 were the baseline products for the layer filled combination product L3, and the blended combination product, T3.
The blend is made of 4.8% w/w 5-[3-(3-Hydroxyphenoxy)azetidin-1-yl]-5-methyl-2,2-diphenylhexanamide hydrochloride mixed with lactose monohydrate in a Diosna high shear blender. The nominal dose of 5-[3-(3-Hydroxyphenoxy)azetidin-1-yl]-5-methyl-2,2-diphenylhexanamide hydrochloride per pocket is 264 mcg.
The blend is made of 0.58% w/w salmeterol xinafoate and 4% w/w fluticasone propionate mixed with lactose monohydrate in a Diosna high shear blender. The nominal doses of salmeterol xinafoate and fluticasone propionate per pocket are 72.5 mcg and 500 mcg, respectively.
The salmeterol xinafoate/fluticasone propionate blend is made of 0.58% w/w salmeterol xinafoate and 4% w/w fluticasone propionate mixed with lactose monohydrate in a Diosna high shear blender. The 5-[3-(3-Hydroxyphenoxy)azetidin-1-yl]-5-methyl-2,2-diphenylhexanamide hydrochloride blend is made of 4.8% w/w 5-[3-(3-Hydroxyphenoxy)azetidin-1-yl]-5-methyl-2,2-diphenylhexanamide hydrochloride mixed with lactose monohydrate in a Diosna high shear blender. The nominal doses of salmeterol xinafoate, fluticasone propionate and 5-[3-(3-Hydroxyphenoxy)azetidin-1-yl]-5-methyl-2,2-diphenylhexanamide hydrochloride per pocket are 72.5 mcg, 500 mcg and 264 mcg, respectively.
The triple blend is prepared by mixing with a low shear Turbula mixer, a 0.58% w/w salmeterol xinafoate, 4% w/w fluticasone propionate blend with 4.8% w/w 5-[3-(3-Hydroxyphenoxy)azetidin-1-yl]-5-methyl-2,2-diphenylhexanamide hydrochloride blend in the ratio 12.5:5.5. […]

[3] = FPM from next generation impactor
[4] = mean total impactor recovery, next generation impactor

FPM, ratio of geometric means (MGR001 divided by MGR003) [1, 3]	FPM, Pass/fail (0.90-1.11) ([1]; MGR001 versus MGR003)	TIR, Pass/fail (0.90-1.11) ([1]; MGR001 versus MGR003)	TIR, ratio of geometric means (MGR001 divided by MGR003) [1, 4]	FPD of the individual drug in blended combination product T3 versus baseline product [2]	FPM, ratio of geometric means (MGR002 divided by MGR003) [1, 3]	FPM, Pass/fail (0.90-1.11) ([1]; MGR002 versus MGR003)	TIR, Pass/fail (0.90-1.11) ([1]; MGR002 versus MGR003)	TIR, ratio of geometric means (MGR002 divided by MGR003) [1, 4]	SMILES
0.99	Pass	Pass	0.96	slightly lowered FPD					CCC(=O)O[C@]1(C(=O)SCF)[C@H](C)C[C@H]2[C@@H]3C[C@H](F)C4=CC(=O)C=C[C@]4(C)[C@@]3(F)[C@@H](O)C[C@@]21C [Fluticasone propionate, fluticasone propionate]
				much lower FPD	0.95	Pass	Pass	0.97	CC(C)(CCC(C(N)=O)(c1ccccc1)c1ccccc1)N1CC(Oc2cccc(O)c2)C1.Cl [5-[3-(3-Hydroxyphenoxy)azetidin-1-yl]-5-methyl-2,2-diphenylhexanamide hydrochloride]
1.01	Pass	Pass	0.97	more variability					OCc1cc(C(O)CNCCCCCCOCCCCc2ccccc2)ccc1O (stereo not drawn) [Salmeterol, salmeterol xinafoate]
